Experimental data from patent publication US7977349B2, “Substituted quinolones III” (Aicuris GmbH & Co. KG, priority 2006, dated 2011).
Structures can show the parent of a compound that is named as a salt.

Assays:
[1] = system: NHDF (human prepuce fibroblasts); assay: Cytostatic effects on NHDF cells in the anti-HCMV cytopathogenicity test; type: cell-based; settings: concentration at which no visible cytostatic effects on NHDF cells are evident vs untreated cell control; 6 days
Procedure: (§1) Anti-HCMV (Anti-Human Cytomegalovirus) Cytopathogenicity Tests The test compounds are employed as 50 millimolar (mM) solutions in dimethyl sulfoxide (DMSO). Ganciclovir®, Foscarnet® and Cidofovir® are used as reference compounds. After the addition of 2 μl of the 50, 5, 0.5 and 0.05 mM DMSO stock solutions respectively to 98 μl portions of cell culture medium in row […] for duplicate determinations, 1:2 dilutions are carried out with 50 μl portions of medium up to row 11 of the 96-well plate. The wells in rows 1 and 12 each contain 50 μl of medium. 150 μl of a suspension of 1×10^4 cells (human prepuce fibroblasts [NHDF]) are then pipetted into each of the wells (row 1=cell control) and, in rows 2-12, a mixture of HCMV-infected and uninfected NHDF cells (M.O.I.=0.001-0.002), i.e. 1-2 infected cells per 1000 uninfected cells. Row 12 (without substance) serves as virus control. The final test concentrations are 250-0.0005 μM. The plates are incubated at 37° C./5% CO2 for 6 days, i.e. until all the cells in the virus controls are infected (100% cytopathogenic effect [CPE]). The wells are then fixed and stained by adding a mixture of formalin and Giemsa's dye (30 minutes), washed with double-distilled water and dried in a drying oven at 50° C. The plates are then assessed visually using an overhead microscope (plaque multiplier from Technomara). The following data can be obtained from the test plates: CC50 (NHDF)=substance concentration in μM at which no visible cytostatic effects on the cells are evident compared with the untreated cell control;

HCMV = assay: Anti-HCMV (anti-human cytomegalovirus) cytopathogenicity test; type: cell-based; settings: concentration inhibiting the CPE by 50% vs untreated virus control, HCMV-infected NHDF cells, 6 days, visual assessment
Procedure: as §1, with “plates: EC50 (HCMV)=substance” for “plates: CC50 (NHDF)=substance”, “μM” for “μM at”, “which inhibits” for “which no visible cytostatic effects on”, “the CPE (cytopathic effect) by 50%” for “the cells are evident”, “untreated virus” for “untreated cell”

[2] = Cytostatic effects on NHDF cells in the anti-HCMV cytopathogenicity test; type: cell-based, human; settings: human, concentration at which no visible cytostatic effects on NHDF cells are evident vs untreated cell control
Procedure: as §1

[3] = Human betaherpesvirus 5, NHDF, 144 h

EC50 (HCMV) | EC50 (HCMV; [3]) | SMILES | CC50 [1] | CC50 at 6 days [2]
0.002 µM | – | COc1c(N2CCC(C(=O)O)CC2)c(F)cc2c(=O)c(C(=O)NCc3ccc(OC(F)(F)F)cc3C)cn(CC(F)(F)F)c12 [Example 75, 1-[6-Fluoro-8-methoxy-3-({[2-methyl-4-(trifluoromethoxy)benzyl]amino}carbonyl)-4-oxo-1-(2,2,2-trifluoroethyl)-1,4-dihydroquinolin-7-yl]piperidine-4-carboxylic acid diethanolamine salt] | 47 µM | –
0.002 µM | – | COc1c(N2CCC(C(=O)O)CC2)c(F)cc2c(=O)c(C(=O)NCc3ccc(OC(F)(F)F)cc3C)cn(CC(F)(F)F)c12 [Example 76, 1-[6-Fluoro-8-methoxy-3-({[2-methyl-4-(trifluoromethoxy)benzyl]amino}carbonyl)-4-oxo-1-(2,2,2-trifluoroethyl)-1,4-dihydroquinolin-7-yl]piperidine-4-carboxylic acid choline salt] | 47 µM | –
– | 0.008 µM | CCOC(=O)C1CCN(c2c(F)cc3c(=O)c(C(=O)NCc4ccc(OC(F)(F)F)cc4Cl)cn(CC(F)(F)F)c3c2OC)CC1 [Example 3, Ethyl 1-[3-({[2-chloro-4-(trifluoromethoxy)benzyl]amino}carbonyl)-6-fluoro-8-methoxy-4-oxo-1-(2,2,2-trifluoroethyl)-1,4-dihydroquinolin-7-yl]piperidine-4-carboxylate] | – | 24 µM
– | 0.005 µM | CCOC(=O)C1CCN(c2c(F)cc3c(=O)c(C(=O)NCc4ccc(OC(F)(F)F)cc4C)cn(CC(F)(F)F)c3c2OC)CC1 [Example 2, Ethyl 1-[6-fluoro-8-methoxy-3-({[2-methyl-4-(trifluoromethoxy)benzyl]amino}carbonyl)-4-oxo-1-(2,2,2-trifluoroethyl)-1,4-dihydroquinolin-7-yl]piperidine-4-carboxylate] | – | 47 µM
– | 0.017 µM | COc1c(N2C[C@@H](C)[C@@H](O)[C@@H](C)C2)c(F)cc2c(=O)c(C(=O)NCc3ccc(OC(F)(F)F)cc3C)cn(CC(F)(F)F)c12 [Example 32, 6-Fluoro-7-[(all-cis)-4-hydroxy-3,5-dimethylpiperidin-1-yl]-8-methoxy-N-[2-methyl-4-(trifluoromethoxy)benzyl]-4-oxo-1-(2,2,2-trifluoroethyl)-1,4-dihydroquinoline-3-carboxamide] | – | 11 µM
– | 0.031 µM | COc1ccc(CNC(=O)c2cn(CC(F)(F)F)c3c(OC)c(N4CCC(C(=O)O)CC4)c(F)cc3c2=O)c(Cl)c1 [Example 55] | – | 16 µM
– | 0.04 µM | COc1c(N2CCC3(CC2)CNC(=O)C3)c(F)cc2c(=O)c(C(=O)NCc3ccc(OC(F)(F)F)cc3C)cn(C3CC3)c12 [Example 34, 1-Cyclopropyl-6-fluoro-8-methoxy-N-[2-methyl-4-(trifluoromethoxy)benzyl]-4-oxo-7-(3-oxo-2,8-diazaspiro[4.5]dec-8-yl)-1,4-dihydroquinoline-3-carboxamide] | – | 11 µM
– | 0.003 µM | COc1c(N2CCC[C@H](CC(=O)O)C2)c(F)cc2c(=O)c(C(=O)NCc3ccc(OC(F)(F)F)cc3C)cn(CC(F)(F)F)c12 [Example 73, {(3R)-1-[6-Fluoro-8-methoxy-3-({[2-methyl-4-(trifluoromethoxy)benzyl]amino}carbonyl)-4-oxo-1-(2,2,2-trifluoroethyl)-1,4-dihydroquinolin-7-yl]piperidin-3-yl}acetic acid] | – | 47 µM
